# In patent EP4349409A1, “COMPOUNDS FOR THE MANAGEMENT OF CELL STEMNESS AND INVASION IN CANCER AND RELATED DISEASES” (Instituto Biomar S.A., priority 2022, dated 2024):
# Assays:
# P1-TP73 promoter = assay: P1-p73-Fluc-DsRed reporter screening of natural compounds in U373 cells; type: cell-based, human; conditions: U373, 8 µg/ml, 48 h after treatment
# Experimental: The conventional GB cell line U373 was used to perform a low-throughput chemical screen to identify P1-TP73-promoter regulators from a panel of 51 natural compounds with novel chemical structures (BMT-1 to BMT-51). Cells were seeded on black microplates and 24 h later they were transfected with 1 µg of P1-p73-Fluc-DsRed plasmid using Lipofectamine 3000™ reagent (ThermoFisher) following the manufacturer's instructions. Six hours later, transfected cells were treated either with 8 µg/ml of any of the tested compounds or with the drugs used as first line glioblastoma treatment: the methylating agent temozolomide (TMZ) and the chloroethyl-derivative of nitrosourea carmustine (BCNU), or equivalent volumes of DMSO. […] The compound BMT18 was also found to have autofluorescence.
# [1] = test system: p73 transcripts originated from the P1 promoter (TAp73, ΔEx2p73, ΔEx2/3p73); assay: qRT-PCR of p73 transcripts from the P1 promoter in U373 cells; type: cell-based, human; conditions: U373, same conditions as screening, 18S control
# Experimental: Expression levels of TAp73 (Figure 2C), ΔEx2p73 (Figure 2D) and ΔEx2/3p73 (Figure 2E) were determined by qRT-qPCR using 18S ribosomal RNA as housekeeping control, and all the expression values were normalized to TAp73 expression in non-treated cells (NT). […] The amino-truncated isoforms that are tumor-specific are vigorously expressed in advanced stages across a variety of highly aggressive human cancers (Knoll et al., 2011; Steder et al., 2013; George et al., 2015; Meier et al., 2016) and promote tumor initiation (Tannapfel et al., 2008) and cancer progression (Engelmann et al., 2015). Moreover, there is a somatic genomic rearrangement of TP73 that generates an oncogenic Ex2/3p73 in small cell lung cancer (George et al., 2015). BMT9 represses the activity of the P1-TP73 promoter, therefore it would be expected to downregulate the expression of any of the isoforms generated from this promoter in a given cell.
# [2] = test system: transcript levels originated from the P1-TP73 promoter (TAp73, ΔEx2p73 and ΔEx2/3p73); assay: qRT-PCR of P1-TP73 promoter transcripts in G144 cells; type: cell-based, human; conditions: G144, 72 h, dose dependent
# Text: As before, all isoforms were reduced by treatment, with TAp73 and ΔEx2/3p73 being the predominant isoforms, while ΔN'p73 was barely detected (Figure 4A). Ribosomal RNA 18S was used as housekeeping control, and all expression levels were normalized to the TAp73 NT value.
# CD133 = CD133 stemness marker flow cytometry in G144 cells; type: cell-based, human; conditions: G144, 48 hours; BMT9 4.5-9 µM, TMZ 500 µM, BCNU 250 µM
# Experimental: Next, we asked if BMT9 treatment at IC50 could specifically affect the stemness of GNSC. To address this point, cells were seeded and treated 24 h later with BMT9 (4.5-9 µM), TMZ (500 µM) or BCNU (250 µM). After 48 hours of treatment, cells were collected and stained with a CD133 (stemness marker) antibody (AC133, Milyenty Biotec) or the corresponding Ig-isotype control. Flow cytometric analysis were performed with the previously mentioned equipment.
# GNSCs = assay: Sphere-forming clonogenic assay of GNSCs; type: cell-based; conditions: 4.5 µM and 9 µM, sphere forming conditions (data not shown)
# Experimental: To further investigate whether BMT9 reduced stemness potential of the GNSCs, we performed a sphere-forming clonogenic assay. Cells were seeded on sphere forming conditions, that is 40,000 cells/ml without laminin coating. Cells were treated with BMT9 at 4.5 µM and 9 µM 24 h after seeding.
# G179 = assay: Scratch (wound healing) assay, G179; type: cell-based; conditions: G179, 4.5µM, 24 h
# Experimental: The effect of BMT9 in cell migration was evaluated using scratch assays, also known as wound healing assays. Cells were seeded in culture inserts for wound healing assays (Ibidi) at a cell density of 35,000 cells/cm^2; 24 h later the insert was removed to create the wound, and fresh medium was added with the corresponding treatment. Microscopy images were acquired at the time of treatment and 24 h later, using a Leica DMI3000 phase contrast microscope. Analysis was performed using the ImageJ software (Schindelin et al., 2012) and the MRI wound healing tool plugin (Suarez-Arnedo et al., 2020). Cell-free area was measured at the two indicated time points and the wound closure percentage relative to the starting point was calculated for each well individually. This assay was performed in G144 and in G179 cells (Figure 10 B and C, respectively).
smiles,measurement,setting,value
C=C1C2CCC(C)(C3COc4c(C)c(OC)c5c(c4C3O)C(O)OC5=O)C1CCC2(C)C (centres unmarked) [BMT9],P1-TP73-promoter activity (fluorescence normalized to DMSO exposed cells),P1-TP73 promoter,strongest and most reproducible repressive effect
same,pre-selection: modulatory effect of a 2-fold fluorescence increase or a 0.5-fold reduction,P1-TP73 promoter; direction per compound not given,pre-selected
same,"expression levels of TAp73, ΔEx2p73 and ΔEx2/3p73",[1],reduced them all
same,"transcript levels originated from the P1-TP73 promoter (TAp73, ΔEx2p73 and ΔEx2/3p73)",[2],downregulated
same,CD133 expression levels (Mean Fluorescence Intensity),CD133,significantly reduced
same,percentage of CD133 positive cells,CD133,significantly reduced
same,sphere generation,GNSCs,reduce sphere generation in a dose dependent manner
same,cell migration (wound closure),G179,significantly impaired cell migration
